Reference: patent US9670139B2, “Telomerase activating compounds and methods of use thereof” (BEN-GURION UNIVERSITY OF THE NEGEV RESEARCH AND DEVELOPMENT …, priority 2007, dated 2017)

What was measured:
[1] = Graft-versus-host disease (GVHD) induced by C57BL/6 spleen cells; assay type: in vivo, mouse; details: F1 mice inoculated with 30×10^6 C57BL/6 spleen cells
Source text: (BALB/c×C57BL/6)F1 mice were inoculated with 30×10^6C57BL/6 spleen cells for induction of GVHD.

[2] = system: C. elegans; test: Lifespan extension of nematodes (C. elegans); assay type: in vivo; details: 50 micromolar; for Lifespan extension (%): Table 2, versus untreated controls; for Lifespan %: table of scaffold drawing 36, mean lifespan versus control
Experimental: Nematodes (C. elegans) were administered tri-phenyl telomerase-activating compounds presented in the following tables, and telomerase activity and/or expression was measured in terms of nematode lifespan extension. Nematodes were grown with the activators at 50 micromolar concentration, and the mean, maximum and half-life for Compound 68 and Compound 77, two representative molecules, was measured versus that of the control (FIG. 8). Values represent mean lifespan.
Survival of the C. elegans, a nematode that normally survives for 12-14 days, represents an acceptable model for studying life extension. Nematodes were administered tri-phenyl telomerase-activating compounds and their effect on the nematode lifespan extension was determined. Nematodes were grown with the activators at a concentration of 50 micromolar, and mean, maximum and half-life were measured in comparison with untreated controls. Lifespan increased by 13-43% (Table 2), and the median lifespan increased approximately 2-fold (from 12 days to 22 days, as shown in FIG. 8).

[3] = system: telomerase; test: Telomerase expression in rat brain cortex after subcutaneous injection (immunofluorescence); assay type: in vivo
Source text: The effect of compounds of the present invention injected subcutaneously into female rats and adult male mice on telomerase expression in various regions of the brain was examined.

[4] = system: murine B-cell leukemia lymphoma (BCL1) cells; test: BCL1 tumorigenicity in (BALB/c×C57BL/6)F1 mice; assay type: in vivo, mouse; details: mice inoculated with 10^5 BCL1 cells; Compound 77 10 mM
Experimental: (BALB/c×C57BL/6)F1 mice were inoculated with 10^5 murine B-cell leukemia lymphoma (BCL1) cells. Splenomegaly and lymphocytosis (leukemia) developed in all controls and in mice treated with telomerase-activating compounds (40 or 80 mg/kg).

[5] = system: telomerase; test: Telomerase expression in mouse heart protein extracts; assay type: in vivo; details: after injection, one mouse
Experimental: The activation of telomerase by compounds of the present invention in heart protein extracts derived from one mouse was measured (FIG. 14). […] This supports a role for compounds of the present invention in treating infarct, ischemia, myocarditis, etc.

[6] = system: mouse cerebellum; test: Prevention of glutamate-induced apoptosis in mouse cerebellum slices; assay type: in vivo; details: 6 mg/kg, 24 h; slices treated with glutamate 30 min
Experimental: The ability of compounds of the present invention to prevent glutamate-induced apoptosis in mouse cerebellum was examined. Mice were injected with 6 mg/kg of Compound 79 or with vehicle only. Mice were sacrificed 24 h after treatment and their brains were removed. Cerebellum slices were prepared and subjected to glutamate treatment at various concentrations for 30 min. Sections were stained with propidium iodide and the number of apoptotic cells was counted and calculated using specific software (Jimage). Prevention of apoptosis in mice treated with compounds of the present invention was calculated as a percentage relative to control mice (FIG. 13). This supports a role for compounds of the present invention in treating seizures, stroke, Alzheimer's disease, epilepsy, schizophrenia, and alcohol and opiate addition.

[7] = target: T1, telomerase (Homo sapiens, UniProt O14746); test: Real time PCR quantification of telomerase activity in hMSC nuclear extracts; assay type: cell-based; design: endogenous in cells; details: 250 nM
T1 sequence (O14746 whole entry): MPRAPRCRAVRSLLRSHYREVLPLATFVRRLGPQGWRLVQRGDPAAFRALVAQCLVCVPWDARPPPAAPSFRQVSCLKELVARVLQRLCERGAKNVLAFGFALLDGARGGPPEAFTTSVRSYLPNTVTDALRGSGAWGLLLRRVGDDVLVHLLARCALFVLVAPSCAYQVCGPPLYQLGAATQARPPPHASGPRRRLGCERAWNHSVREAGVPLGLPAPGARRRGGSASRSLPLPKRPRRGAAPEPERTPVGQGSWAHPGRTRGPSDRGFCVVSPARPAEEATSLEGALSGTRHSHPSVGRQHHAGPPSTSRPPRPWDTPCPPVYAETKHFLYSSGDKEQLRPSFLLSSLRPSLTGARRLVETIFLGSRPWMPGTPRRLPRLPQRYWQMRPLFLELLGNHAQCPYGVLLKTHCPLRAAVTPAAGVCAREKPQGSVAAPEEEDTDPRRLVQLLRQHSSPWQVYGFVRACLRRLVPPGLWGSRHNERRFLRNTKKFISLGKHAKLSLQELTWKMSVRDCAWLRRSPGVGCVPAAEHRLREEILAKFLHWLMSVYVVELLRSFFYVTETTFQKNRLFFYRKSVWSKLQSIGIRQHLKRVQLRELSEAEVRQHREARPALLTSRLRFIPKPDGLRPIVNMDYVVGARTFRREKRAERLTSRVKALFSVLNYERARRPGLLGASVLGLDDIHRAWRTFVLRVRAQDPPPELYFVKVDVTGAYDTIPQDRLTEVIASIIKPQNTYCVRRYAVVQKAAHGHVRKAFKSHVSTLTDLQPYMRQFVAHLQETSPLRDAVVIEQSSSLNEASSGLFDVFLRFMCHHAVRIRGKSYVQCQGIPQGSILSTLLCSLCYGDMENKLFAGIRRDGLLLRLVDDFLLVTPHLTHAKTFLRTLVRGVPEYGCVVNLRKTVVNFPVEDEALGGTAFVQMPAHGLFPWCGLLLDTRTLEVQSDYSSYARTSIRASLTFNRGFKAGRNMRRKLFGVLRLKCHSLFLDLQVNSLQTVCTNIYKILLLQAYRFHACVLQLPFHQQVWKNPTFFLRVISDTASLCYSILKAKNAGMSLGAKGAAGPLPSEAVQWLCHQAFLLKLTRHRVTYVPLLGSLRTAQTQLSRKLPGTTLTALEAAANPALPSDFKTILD
Experimental: FIG. 5: Activation of telomerase expression in hMSC by compounds of the present invention. A.—hMSC were treated with 250 nM of Compounds 79, 77 and 68 for 6 hours. Immunofluorescence was performed with anti-hTERT antibody (red) and the nucleus was stained with DAPI (blue). B. hMSC treated with compound 79 for 6 and 24 h. Telomerase activity was measured by real time PCR using a quantitative telomerase detection kit (Allied Biotech Inc., USA).
The possibility that compounds of the present invention enhance hMSC survival and proliferation by activation of TERT was examined by culturing hMSC (p 3) in a tissue culture chamber slide at 17×10^3 cells/well for 60 h. Compounds of the present invention were added for 6 h with fresh medium. Immunofluorescence with anti-hTERT antibody (first antibody) and cy3 fluorescent secondary antibody was carried out. The nucleus was stained with DAPI. Compounds of the present invention activated telomerase expression in hMSC (FIG. 5). […] Degree of activation of telomerase expression was Compound 68>79>77. Quantification of telomerase activity in hMSC was performed by Real time PCR (Quantification telomerase detection kit) in nuclear extracts derived from hMSC treated with compound 79 (250 nM) for 6 or 24 h. Compound 79 enhanced telomerase activity in hMSC by 12- or 6-fold in a time-dependent manner (FIG. 5B).

[8] = target: T1, telomerase; test: Telomerase activity in RPE cells (quantitative telomerase detection kit, real time PCR); assay type: cell-based; design: endogenous in cells; host or cells: human retinal pigmented epithelial (RPE) cells; details: FIG. 7B
Source text: FIG. 7: A. The effect of compounds of the present invention on human retinal pigmented epithelial cells under oxidative stress. B. The effect of compounds on telomerase activity in RPE cells (measured by a quantitative telomerase detection kit-real time PCR).
Chronic exposure of human retinal pigmented epithelial (RPE) cells to oxidative stress predisposes them to the development of age-related macular degeneration (AMD). Human RPE cells were exposed to oxidative stress by treatment with H2O2 (1 mM) for 24 hours, and H2O2 (0.5 mM) for another 24 hours. The cells were then treated daily for two days with the indicated compounds in the absence of H2O2. Increased cell growth was observed as a consequence of treatment with the compounds (FIG. 7A). Telomerase activity was enhanced in RPE cells treated with compounds 68 and 79 by 30- and 50-fold, respectively (FIG. 7B).

[9] = system: telomerase; test: Telomerase expression in mouse brain regions after subcutaneous injection (immunofluorescence); assay type: in vivo; details: three-month-old male mice, 24 h
Experimental: Compound 79 was injected subcutaneously into three-month-old male mice. The mice were sacrificed 24 h later and the cortex, cerebellum, hippocampus, hypothalamus, brain stem and olfactory bulb isolated and subjected to immunofluorescence. […] This activation appeared to be specific for certain neuronal cells.

[10] = system: Human keratinocytes; test: Proliferation and survival of senescent human keratinocytes; assay type: cell-based; details: fifth passage keratinocytes
Experimental: Human keratinocytes which had lost their ability to proliferate (in their fifth passage) were obtained from a local skin bank and treated with Compound 68 for 24 h. Cell viability, cell number and morphology was examined.

Row | Structure (SMILES) | signs of acute GVHD (weight loss) versus untreated controls [1] | Lifespan extension (%) [2] [%] | Lifespan % [2] [%] | expression of telomerase in the brain cortex [3] | Survival Median (range) [4] | heart telomerase expression [5] | glutamate-induced apoptosis in mouse cerebellum [6] | enhancement of telomerase activity in hMSC ([7]; 6 h) [fold] | enhancement of telomerase activity in hMSC ([7]; 24 h) [fold] | enhancement of telomerase activity in RPE cells [8] [fold] | telomerase expression in motor-neuronal cells of the brain stem [9] | telomerase expression in the various brain regions [9] | cell survival effect on keratinocytes (comparison) [10]
1 | CN(C)Cc1cc(C(C)(c2cc(CN(C)C)c(O)c(CN(C)C)c2)c2cc(CN(C)C)c(O)c(CN(C)C)c2)cc(CN(C)C)c1O [Compound 77] | more severe signs of acute GVHD | 43 | 43 | significantly activated | 26 (22-41) |  |  |  |  |  |  |  | 
2 | CCOCc1cc(C(C)(c2cc(COCC)c(O)c(COCC)c2)c2cc(COCC)c(O)c(COCC)c2)cc(COCC)c1O [Compound 79] |  | 16 | 16 | significantly activated |  | significant increase | Prevention of glutamate-induced apoptosis | 12 | 6 | 50 | increased telomerase expression | significantly and dramatically increased | better cell survival effect than Compound 68
